Source: ChEMBL document CHEMBL4765425, “Synthesis of 1,3,4-oxadiazole derivatives with anticonvulsant activity and their binding to the GABA receptor” (Eur J Med Chem, 2020)
Calls of active or inactive are those of the source. The calls are words filed in the database; no cut-off is given here.

Assays:
[1] = test system: Mus musculus; assay: Anticonvulsant activity in Kunming mouse assessed as reduction in ScPTZ-induced seizure at 100 mg/kg, ip measured after 30 mins; format: functional, organism-based
[2] = Neurotoxicity in Kunming mouse at 100 mg/kg, ip measured after 30 mins by rotarod test; format: toxicity, organism-based; conditions: in vivo, 0.5 h
[3] = test system: Mus musculus; assay: Anticonvulsant activity in Kunming mouse assessed as reduction in MES-induced seizure at 300 mg/kg, ip measured after 30 mins; format: functional, organism-based
[4] = Neurotoxicity in Kunming mouse at 300 mg/kg, ip measured after 30 mins by rotarod test; format: toxicity, organism-based; conditions: in vivo, 0.5 h
[5] = test system: Mus musculus; assay: Anticonvulsant activity in Kunming mouse assessed as reduction in ScPTZ-induced seizure at 300 mg/kg, ip measured after 30 mins; format: functional, organism-based

With CCCCCCCCCSc1nnc(COc2ccc3c(c2)CCC(=O)N3)o1 the Activity [1] was “inactive”, the Activity [2] was “Non-Toxic” and the Activity [3] was “Active”. The Activity [4] was “Non-Toxic”.

With Cc1cccc(CSc2nnc(COc3ccc4c(c3)CCC(=O)N4)o2)c1 the Activity [5] was “Active”, the Activity [2] was “Non-Toxic” and the Activity [3] was “Active”. For the same compound, the Activity [4] was “Non-Toxic”.

For CC(=O)Nc1ccc(OCc2nnc(SCc3ccc(C)cc3)o2)cc1, the Activity [5] was “Active”, the Activity [2] was “Non-Toxic” and the Activity [3] was “Active”. For the same compound, the Activity [4] was “Non-Toxic”.

With O=C1CCc2cc(OCc3nnc(SCc4cccc(F)c4)o3)ccc2N1 the Activity [2] was “Non-Toxic” and the Activity [4] was “Non-Toxic”.

With CC(=O)Nc1ccc(OCc2nnc(SCc3cccc(C(F)(F)F)c3)o2)cc1 the Activity [5] was “Active”, the Activity [2] was “Non-Toxic” and the Activity [3] was “Active”. For the same compound, the Activity [4] was “Non-Toxic”.

In the case of O=C1CCc2cc(OCc3nnc(SCc4ccccc4)o3)ccc2N1, the Activity [2] is reported as “Non-Toxic”, the Activity [3] is reported as “Active” and the Activity [4] is reported as “Non-Toxic”.

In the case of O=C1CCc2cc(OCc3nnc(SCc4cccc(Cl)c4)o3)ccc2N1, the Activity [5] is reported as “Active”, the Activity [2] is reported as “Non-Toxic” and the Activity [3] is reported as “Active”. For the same compound, the Activity [4] was “Non-Toxic”.

In the case of O=C1CCc2cc(OCc3nnc(SCc4ccccc4Cl)o3)ccc2N1, the Activity [1] is reported as “inactive”, the Activity [2] is reported as “Non-Toxic” and the Activity [3] is reported as “Active”. The Activity [4] was “Non-Toxic”.

With CCCCCCCSc1nnc(COc2ccc(NC(C)=O)cc2)o1 the Activity [2] was “Non-Toxic” and the Activity [4] was “Non-Toxic”.

In the case of CC(=O)Nc1ccc(OCc2nnc(SCc3cccc(C)c3)o2)cc1, the Activity [2] is reported as “Non-Toxic” and the Activity [4] is reported as “Non-Toxic”.

For Cc1ccccc1CSc1nnc(COc2ccc3c(c2)CCC(=O)N3)o1, the Activity [5] was “Active”, the Activity [2] was “Non-Toxic” and the Activity [3] was “Active”. The Activity [4] was “Non-Toxic”.

With CC(=O)Nc1ccc(OCc2nnc(SCc3ccc(F)cc3)o2)cc1 the Activity [5] was “Active”, the Activity [2] was “Non-Toxic” and the Activity [3] was “Active”. The Activity [4] was “Non-Toxic”.

With O=C1CCc2cc(OCc3nnc(SCc4cccc(C(F)(F)F)c4)o3)ccc2N1 the Activity [5] was “Active”, the Activity [2] was “Non-Toxic” and the Activity [3] was “Active”. The Activity [4] was “Non-Toxic”.

For CC(=O)Nc1ccc(OCc2nnc(SCc3ccccc3C(F)(F)F)o2)cc1, the Activity [2] was “Non-Toxic” and the Activity [4] was “Non-Toxic”.

For CC(=O)Nc1ccc(OCc2nnc(SCc3ccccc3C)o2)cc1, the Activity [5] was “Active”, the Activity [2] was “Non-Toxic” and the Activity [3] was “Active”. For the same compound, the Activity [4] was “Non-Toxic”.

In the case of CCCCSc1nnc(COc2ccc3c(c2)CCC(=O)N3)o1, the Activity [5] is reported as “Active”, the Activity [2] is reported as “Non-Toxic” and the Activity [3] is reported as “Active”. The Activity [4] was “Non-Toxic”.

With O=C1CCc2cc(OCc3nnc(SCc4ccccc4F)o3)ccc2N1 the Activity [5] was “Active”, the Activity [2] was “Non-Toxic” and the Activity [3] was “Active”. The Activity [4] was “Non-Toxic”.

For CC(=O)Nc1ccc(OCc2nnc(SCc3ccccc3)o2)cc1, the Activity [2] was “Non-Toxic” and the Activity [4] was “Non-Toxic”.

In the case of O=C1CCc2cc(OCc3nnc(SCc4ccc(Cl)cc4)o3)ccc2N1, the Activity [1] is reported as “inactive”, the Activity [2] is reported as “Non-Toxic” and the Activity [4] is reported as “Non-Toxic”.

For O=C1CCc2cc(OCc3nnc(SCc4ccccc4C(F)(F)F)o3)ccc2N1, the Activity [5] was “Active”, the Activity [2] was “Non-Toxic” and the Activity [3] was “Active”. For the same compound, the Activity [4] was “Non-Toxic”.

For CCCCCCCSc1nnc(COc2ccc3c(c2)CCC(=O)N3)o1, the Activity [2] was “Non-Toxic”, the Activity [3] was “Active” and the Activity [4] was “Non-Toxic”.

In the case of CCCCSc1nnc(COc2ccc(-n3cnnc3)cc2)o1, the Activity [2] is reported as “Non-Toxic”, the Activity [3] is reported as “Active” and the Activity [4] is reported as “Non-Toxic”.

With CC(=O)Nc1ccc(OCc2nnc(SCc3ccccc3Cl)o2)cc1 the Activity [5] was “Active”, the Activity [2] was “Non-Toxic” and the Activity [3] was “Active”. The Activity [4] was “Non-Toxic”.
